In patent US20200239530A1, “COMPOUNDS AND METHODS OF MODULATING PROTEIN DEGRADATION” (Vividion Therapeutics, Inc., priority 2017, published 2020):

Columns and labels:
Experiment in all cases: Cysteine liganding, probe competition
Assay type in all cases: binding
[1] = target: T1, UBR2 E3 ubiquitin-protein ligase UBR2 (Homo sapiens, UniProt Q8IWV8)
T1 construct: Cells were resuspended in cold PBS on ice and sonicated with a probe sonicator to achieve lysis; endogenous in cells
How it was run: (§1)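 Steps: sonicate cells in cold PBS; treat 5 mg/ml lysate with compound (25° C, 1 hr); add desthiobiotin iodoacetamide probe from a 10 mM stock (25° C, 1 hr); precipitate, reduce, alkylate, digest with trypsin; capture labelled peptides on streptavidin for analysis.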

[2] = target: T2, CKMT1B Creatine kinase U-type, mitochondrial (Homo sapiens, UniProt P12532); conditions: for Liganded: CKMT1B Res# 316, uniprot P12532
T2 construct: 200 μL of lysate containing 5 mg/ml proteome was treated with 2 μL of 100× compound stock; endogenous in cells
How it was run: as §1

[3] = target: T3, TRIM65 Tripartite motif-containing protein 65 (Homo sapiens, UniProt Q6PJ69)
T3 construct: Cells were resuspended in cold PBS on ice and sonicated with a probe sonicator to achieve lysis; endogenous in cells
T3 sequence (Q6PJ69 1-517): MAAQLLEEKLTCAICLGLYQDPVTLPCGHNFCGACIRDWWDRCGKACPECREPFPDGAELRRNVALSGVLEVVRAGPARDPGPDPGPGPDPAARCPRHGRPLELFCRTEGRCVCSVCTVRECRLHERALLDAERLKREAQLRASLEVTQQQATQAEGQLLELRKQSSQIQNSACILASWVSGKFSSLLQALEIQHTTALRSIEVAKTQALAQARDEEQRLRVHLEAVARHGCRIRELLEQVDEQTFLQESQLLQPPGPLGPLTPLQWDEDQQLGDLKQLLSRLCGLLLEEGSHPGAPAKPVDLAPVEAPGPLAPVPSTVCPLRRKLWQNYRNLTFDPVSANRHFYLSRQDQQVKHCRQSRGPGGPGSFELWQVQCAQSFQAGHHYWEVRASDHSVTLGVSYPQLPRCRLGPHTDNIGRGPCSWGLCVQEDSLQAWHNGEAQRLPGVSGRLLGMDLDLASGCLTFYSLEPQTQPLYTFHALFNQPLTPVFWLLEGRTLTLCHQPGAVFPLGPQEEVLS
How it was run: as §1

T1 sequence (Q8IWV8 whole entry): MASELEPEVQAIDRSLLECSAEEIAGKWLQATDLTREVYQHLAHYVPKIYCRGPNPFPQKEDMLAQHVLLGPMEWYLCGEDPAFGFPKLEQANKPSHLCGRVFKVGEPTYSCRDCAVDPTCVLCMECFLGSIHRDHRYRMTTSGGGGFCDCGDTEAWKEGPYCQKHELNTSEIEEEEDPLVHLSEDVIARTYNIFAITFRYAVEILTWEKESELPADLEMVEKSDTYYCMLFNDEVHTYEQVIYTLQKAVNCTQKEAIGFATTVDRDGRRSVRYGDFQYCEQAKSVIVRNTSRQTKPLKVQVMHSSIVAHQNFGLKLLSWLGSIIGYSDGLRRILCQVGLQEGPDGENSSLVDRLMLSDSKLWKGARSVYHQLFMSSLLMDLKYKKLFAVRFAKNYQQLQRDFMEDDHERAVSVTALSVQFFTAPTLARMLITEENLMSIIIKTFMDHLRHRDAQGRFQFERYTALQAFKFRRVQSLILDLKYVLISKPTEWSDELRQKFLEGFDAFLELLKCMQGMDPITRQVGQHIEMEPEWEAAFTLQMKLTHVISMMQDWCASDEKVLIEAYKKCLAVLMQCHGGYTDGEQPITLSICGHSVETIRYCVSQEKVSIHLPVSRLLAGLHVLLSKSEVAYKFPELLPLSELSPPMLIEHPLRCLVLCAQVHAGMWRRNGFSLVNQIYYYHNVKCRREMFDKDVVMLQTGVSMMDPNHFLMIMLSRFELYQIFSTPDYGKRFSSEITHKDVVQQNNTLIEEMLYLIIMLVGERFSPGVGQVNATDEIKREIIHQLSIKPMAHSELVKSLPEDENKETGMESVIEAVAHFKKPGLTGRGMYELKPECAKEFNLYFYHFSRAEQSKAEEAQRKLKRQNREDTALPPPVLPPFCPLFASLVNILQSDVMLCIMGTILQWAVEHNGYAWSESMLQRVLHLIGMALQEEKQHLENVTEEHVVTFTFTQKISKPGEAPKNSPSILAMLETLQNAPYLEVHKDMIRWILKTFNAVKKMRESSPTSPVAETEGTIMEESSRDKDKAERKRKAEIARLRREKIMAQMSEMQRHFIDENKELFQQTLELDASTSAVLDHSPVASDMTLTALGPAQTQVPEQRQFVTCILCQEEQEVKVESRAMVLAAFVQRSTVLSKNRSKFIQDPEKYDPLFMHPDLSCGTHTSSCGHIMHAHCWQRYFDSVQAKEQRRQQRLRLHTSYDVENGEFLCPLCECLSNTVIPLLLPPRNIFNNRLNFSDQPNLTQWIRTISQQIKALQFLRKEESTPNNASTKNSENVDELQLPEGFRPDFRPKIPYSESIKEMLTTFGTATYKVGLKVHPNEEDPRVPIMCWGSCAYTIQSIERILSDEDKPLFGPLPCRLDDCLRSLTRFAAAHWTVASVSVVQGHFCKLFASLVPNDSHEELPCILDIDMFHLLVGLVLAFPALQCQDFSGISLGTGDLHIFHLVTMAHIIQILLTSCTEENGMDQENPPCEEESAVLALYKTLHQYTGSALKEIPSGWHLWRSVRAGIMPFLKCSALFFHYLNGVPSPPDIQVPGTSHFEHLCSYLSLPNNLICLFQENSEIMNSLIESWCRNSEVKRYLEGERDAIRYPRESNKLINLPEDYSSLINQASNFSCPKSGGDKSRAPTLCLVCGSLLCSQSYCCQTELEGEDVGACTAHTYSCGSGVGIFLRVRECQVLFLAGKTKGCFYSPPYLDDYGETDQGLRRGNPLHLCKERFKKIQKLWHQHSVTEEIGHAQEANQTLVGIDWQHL

Compound | Liganded ([1]; UBR2 Res# 1717, uniprot Q8IWV8) | Liganded [2] | Liganded ([3]; TRIM65 Res# 320, uniprot Q6PJ69) | 100 Max ([1]; uniprot Q8IWV8) | 100 ave ([1]; uniprot Q8IWV8) | 500 ave ([1]; uniprot Q8IWV8) | 500 Max ([1]; uniprot Q8IWV8, unit assumed) [%] | 100 Max ([2]; uniprot P12532) | 100 ave ([2]; uniprot P12532) | 500 ave ([2]; uniprot P12532) | 500 Max ([2]; uniprot P12532, in % (unit assumed)) | 100 Max ([3]; uniprot Q6PJ69) | 100 ave ([3]; uniprot Q6PJ69) | 500 Max ([3]; uniprot Q6PJ69) | 500 ave ([3]; uniprot Q6PJ69)
COc1ccc2c(c1)CCCN2C(=O)CCl [KB02] | YES | YES | YES | – | – | – | – | – | – | – | – | – | – | – | –
O=C(CCl)Nc1cc(C(F)(F)F)cc(C(F)(F)F)c1 [KBO3] | – | YES | – | 18.5 | 8.3 | 60.0 | 65.9 | 42.35 | 29.59 | 81.71 | 86.19 | 35.1 | 19.4 | 70.9 | 60.2
